Among the data in ChEMBL document CHEMBL1141060, “A new synthesis of isoaurones: cytotoxic activity of compounds related to the alleged structure of isoaurostatin” (Bioorg Med Chem Lett, 2005) are IC50 values, retold here.

The term IC50 denotes the concentration needed to halve the response being measured.

The subject of this test is NCI-H460. The test can be described thus: Cytotoxic activity against human non-small lung carcinoma cell line H460. The class given is functional, cell-based.
`O=C1Oc2ccccc2/C1=C\c1ccc(O)cc1` gave a half-inhibitory concentration (IC50) of 10.1 µM.

The compound `COc1ccc(/C=C2/C(=O)Oc3ccccc32)cc1O` had a concentration for half-maximal inhibition (IC50) of 9.3 µM.

In turn, `COc1ccc(/C=C2/C(=O)Oc3ccccc32)cc1` yielded a half-maximal inhibitory concentration (IC50) greater than 39 µM.

The compound `CC(=O)Oc1ccc(/C=C2/C(=O)Oc3ccc(OC(C)=O)cc32)cc1` registered an IC50 greater than 50 µM.

`COc1cc(OC)c2c(c1)OC(=O)/C2=C/c1ccc(OC)c(O)c1` yielded a half-maximal inhibitory concentration (IC50) of 8.8 µM.

For the compound `COc1cc(/C=C2/C(=O)Oc3ccccc32)cc(OC)c1OC`, the IC50 was determined as 37.7 µM.

`O=C1Oc2ccccc2/C1=C\c1ccc(OC(=O)c2ccccc2)cc1` gave an IC50 greater than 30 µM.
